Key:
Human JNK2α2 = Human JNK2α2 (Homo sapiens, UniProt P45984); experiment: JNK assay in vitro, phosphorylation of GST-ATF2 (19-96) with [γ-33P] ATP, JNK2; format: biochemical; details: 1 nM enzyme, 1 μM ATF2, 8 μM ATP, 30° C. for 30 min
Description: (§1) JNK activity was measured by phosphorylation of GST-ATF2 (19-96) with [γ-^33P] ATP. The enzyme reaction was conducted at Km concentrations of ATP and the substrate at final volume of 40 μl in buffer containing 25 mM HEPES, pH 7.5, 2 mM dithiothreitol, 150 mM NaCl, 20 mM MgCl2, 0.001% Tween® 20, 0.1% BSA and 10% DMSO. Human JNK2α2 assay contains 1 nM enzyme, 1 μM ATF2, 8 μM ATP with 1 uCi [γ-^33P] ATP. Human JNK1α1 assay contains 2 nM enzyme, 1 μM ATF2, 6 μM ATP with 1 μCi [γ-^33P] ATP. Human JNK3 (Upstate Biotech #14-501M) assay contains 2 nM enzyme, 1 μM ATF2, 4 μM ATP with 1 μCi [γ-^33P] ATP. The enzyme assay was carried out in the presence or absence of several compound concentrations. JNK and compound were pre-incubated for 10 min., followed by initiation of the enzymatic reaction by adding ATP and the substrate. The reaction mixture was incubated at 30° C. for 30 min. At the end of incubation, the reaction was terminated by transferring 25 μl of the reaction mixture to 150 μl of 10% glutathione Sepharose® slurry (Amersham # 27-4574-01) containing 135 mM EDTA. The reaction product was captured on the affinity resin, and washed on a filtration plate (Millipore, MABVNOB50) with phosphate buffered saline for six times to remove free radionucleotide. The incorporation of ^33P into ATF2 was quantified on a microplate scintillation counter (Packard Topcount). Compound inhibition potency on JNK was measured by IC50 value generated from ten concentration inhibition curves fitted into the 3-parameter model: % inhibition=Maximum/(1+(IC50/[Inhibitor])^slope). Data were analyzed on Microsoft Excel for parameter estimation.

Human JNK1α1 = Human JNK1α1 (Homo sapiens, UniProt P45983); experiment: JNK assay in vitro, phosphorylation of GST-ATF2 (19-96) with [γ-33P] ATP, JNK1; format: biochemical; details: 2 nM enzyme, 1 μM ATF2, 6 μM ATP, 30° C. for 30 min
Description: as §1

Sequence of Human JNK1α1 (P45983 1-384 isoform P45983-2): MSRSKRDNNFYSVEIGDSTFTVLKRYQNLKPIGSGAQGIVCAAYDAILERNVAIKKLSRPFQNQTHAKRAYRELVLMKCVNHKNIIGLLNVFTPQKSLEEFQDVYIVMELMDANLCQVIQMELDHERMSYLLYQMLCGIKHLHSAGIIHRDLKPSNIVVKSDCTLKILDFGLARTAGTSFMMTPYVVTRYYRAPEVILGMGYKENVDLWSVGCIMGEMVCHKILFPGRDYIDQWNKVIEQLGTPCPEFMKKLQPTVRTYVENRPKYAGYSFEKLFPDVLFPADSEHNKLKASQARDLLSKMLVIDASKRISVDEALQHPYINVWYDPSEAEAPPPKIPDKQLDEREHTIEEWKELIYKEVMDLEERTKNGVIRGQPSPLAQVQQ
Sequence of Human JNK2α2 (P45984 whole entry): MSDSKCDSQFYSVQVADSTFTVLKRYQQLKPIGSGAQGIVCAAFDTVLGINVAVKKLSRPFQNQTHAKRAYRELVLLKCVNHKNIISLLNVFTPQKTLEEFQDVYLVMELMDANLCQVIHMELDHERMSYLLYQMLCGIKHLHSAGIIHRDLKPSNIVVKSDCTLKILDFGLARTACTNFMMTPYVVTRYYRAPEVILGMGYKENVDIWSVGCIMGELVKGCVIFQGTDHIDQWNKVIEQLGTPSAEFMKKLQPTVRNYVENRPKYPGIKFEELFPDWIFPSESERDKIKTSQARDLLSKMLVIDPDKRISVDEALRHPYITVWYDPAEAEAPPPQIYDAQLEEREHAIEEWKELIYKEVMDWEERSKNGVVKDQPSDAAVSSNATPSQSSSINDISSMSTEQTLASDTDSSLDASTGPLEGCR

IC50 (Human JNK2α2) [nM] | IC50 (Human JNK1α1) [nM] | SMILES
136 | 108 | O=c1ccc2cnc(NC3CCCCC3)nc2n1C1CCCC1 [Compound 3, 2-Cyclohexylamino-8-cyclopentyl-8H-pyrido[2,3-d]pyrimidin-7-one]
778 | 282 | CS(=O)(=O)N[C@H]1CC[C@H](Nc2ncc3ccc(=O)n(CCCO)c3n2)CC1 [Compound 5, N-{4-[8-(3-Hydroxy-propyl)-7-oxo-7,8-dihydro-pyrido[2,3-d]pyrimidin-2-ylamino]-cyclohexyl}-methanesulfonamide]
713 | 503 | Cc1cc2cnc(NC3CCCCC3)nc2n(CCCO)c1=O [Compound 11]
625 | 464 | CS(=O)(=O)NCCCn1c(=O)ccc2cnc(NC3CCCCC3)nc21 [Compound 9, N-[3-(2-Cyclohexylamino-7-oxo-7H-pyrido[2,3-d]pyrimidin-8-yl)-propyl]-methanesulfonamide]
154 | 70.1 | CC(CCO)n1c(=O)ccc2cnc(NC3CCCCC3)nc21 (stereo not drawn) [Compound 1, 2-Cyclohexylamino-8-(3-hydroxy-1-methyl-propyl)-8H-pyrido[2,3-d]pyrimidin-7-one]
409 | 291 | Cc1cc2cnc(N[C@H]3CC[C@H](O)CC3)nc2n(CCCO)c1=O [Compound 7, 2-(4-Hydroxy-cyclohexylamino)-8-(3-hydroxy-propyl)-6-methyl-8H-pyrido[2,3-d]pyrimidin-7-one]

Reference: patent publication US8404695B2, “Pyrimidinyl pyridone inhibitors of JNK” (Roche Palo Alto LLC, priority 2008, dated 2013)
